In the NIST ThermoML archive (doi:10.1021/acs.jced.7b00119):
Values joined by “and” are separate entries in the source; they are usually repeats but may differ in a detail not shown here. Equal values may be shown once. Numbers after ± are expanded uncertainties.

Columns and labels:
[1] = Liquid, Closed cell (Static) method
[2] = excess molar enthalpy (molar enthalpy of mixing); xn = mol fraction of the nth substance listed; details: Liquid, Flow calorimetry

CC(=O)N(C)C [N,N-dimethylethanamide]
[1]
Details	vapor or sublimation pressure
328.15 K	1.61 ± 0.16 kPa and 1.64 ± 0.16 kPa
333.15 K	2.23 ± 0.16 kPa
343.15 K	3.39 ± 0.16 kPa
353.15 K	5.32 ± 0.16 kPa [middle of 5 runs]
363.15 K	8.46 ± 0.16 kPa

CC(=O)N(C)C [N,N-dimethylethanamide] + CCCCCC
[2]
Details	excess molar enthalpy [kcal/mol]
363.15 K, 1982 kPa, x2 = 0.0358	0.0559 ± 0.00215
363.15 K, 1982 kPa, x2 = 0.0726	0.114 ± 0.00335
363.15 K, 1982 kPa, x2 = 0.1106	0.168 ± 0.00454
363.15 K, 1982 kPa, x2 = 0.1498	0.218 ± 0.0055
363.15 K, 1982 kPa, x2 = 0.1902	0.262 ± 0.00645
363.15 K, 1982 kPa, x2 = 0.2319	0.302 ± 0.00741
363.15 K, 1982 kPa, x2 = 0.275	0.337 ± 0.00813
363.15 K, 1982 kPa, x2 = 0.3196	0.366 ± 0.00884
363.15 K, 1982 kPa, x2 = 0.3657	0.391 ± 0.00932
363.15 K, 1982 kPa, x2 = 0.4134	0.41 ± 0.00956
363.15 K, 1982 kPa, x2 = 0.4627	0.419 ± 0.0098
363.15 K, 1982 kPa, x2 = 0.5138	0.426 ± 0.01
363.15 K, 1982 kPa, x2 = 0.5668	0.426 ± 0.01
363.15 K, 1982 kPa, x2 = 0.6218	0.418 ± 0.0098
363.15 K, 1982 kPa, x2 = 0.6788	0.4 ± 0.00956
363.15 K, 1982 kPa, x2 = 0.7381	0.37 ± 0.00884
363.15 K, 1982 kPa, x2 = 0.7997	0.324 ± 0.00789
363.15 K, 1982 kPa, x2 = 0.8638	0.258 ± 0.00645
363.15 K, 1982 kPa, x2 = 0.9305	0.157 ± 0.0043
413.15 K, 1824 kPa, x2 = 0.0179	0.0289 ± 0.00167
413.15 K, 1824 kPa, x2 = 0.0361	0.059 ± 0.00215
413.15 K, 1824 kPa, x2 = 0.0733	0.117 ± 0.00335
413.15 K, 1824 kPa, x2 = 0.1116	0.17 ± 0.00454
413.15 K, 1824 kPa, x2 = 0.151	0.218 ± 0.0055
413.15 K, 1824 kPa, x2 = 0.1917	0.262 ± 0.00645
413.15 K, 1824 kPa, x2 = 0.2337	0.304 ± 0.00741
413.15 K, 1824 kPa, x2 = 0.277	0.338 ± 0.00813
413.15 K, 1824 kPa, x2 = 0.3217	0.369 ± 0.00884
413.15 K, 1824 kPa, x2 = 0.3679	0.396 ± 0.00932
413.15 K, 1824 kPa, x2 = 0.4157	0.421 ± 0.0098
413.15 K, 1824 kPa, x2 = 0.4651	0.433 ± 0.01
413.15 K, 1824 kPa, x2 = 0.5163	0.441 ± 0.0103
413.15 K, 1824 kPa, x2 = 0.5692	0.442 ± 0.0103
413.15 K, 1824 kPa, x2 = 0.6241	0.434 ± 0.01
413.15 K, 1824 kPa, x2 = 0.681	0.415 ± 0.0098
413.15 K, 1824 kPa, x2 = 0.74	0.386 ± 0.00908
413.15 K, 1824 kPa, x2 = 0.8013	0.337 ± 0.00813
413.15 K, 1824 kPa, x2 = 0.8649	0.264 ± 0.00645
413.15 K, 1824 kPa, x2 = 0.9311	0.158 ± 0.0043
413.15 K, 1824 kPa, x2 = 0.9652	0.086 ± 0.00287

CC(=O)N(C)C [N,N-dimethylethanamide] + CCCCCCC
[2], 413.15 K, 1824 kPa
Details	excess molar enthalpy [kcal/mol]
x2 = 0.016	0.0308 ± 0.00167
x2 = 0.0323	0.0619 ± 0.00239
x2 = 0.0659	0.122 ± 0.00359
x2 = 0.1007	0.177 ± 0.00478
x2 = 0.137	0.228 ± 0.00574
x2 = 0.1747	0.276 ± 0.00669
x2 = 0.2139	0.319 ± 0.00765
x2 = 0.2548	0.358 ± 0.0086
x2 = 0.2974	0.393 ± 0.00932
x2 = 0.3419	0.423 ± 0.01
x2 = 0.3883	0.449 ± 0.0105
x2 = 0.4369	0.466 ± 0.0108
x2 = 0.4878	0.476 ± 0.011
x2 = 0.5411	0.48 ± 0.0112
x2 = 0.597	0.474 ± 0.011
x2 = 0.6557	0.456 ± 0.0108
x2 = 0.7175	0.427 ± 0.01
x2 = 0.7825	0.376 ± 0.00884
x2 = 0.8511	0.299 ± 0.00741
x2 = 0.9234	0.181 ± 0.00478
x2 = 0.9612	0.0999 ± 0.00311

CC(=O)N(C)C [N,N-dimethylethanamide] + CCO
[2], 413.15 K, 1824 kPa
Details	excess molar enthalpy [kcal/mol]
x2 = 0.0774	-0.0421 ± 0.00191
x2 = 0.1505	-0.077 ± 0.00263
x2 = 0.2528	-0.116 ± 0.00335
x2 = 0.3471	-0.143 ± 0.00406
x2 = 0.462	-0.163 ± 0.00454
x2 = 0.541	-0.168 ± 0.00454
x2 = 0.6146	-0.166 ± 0.00454
x2 = 0.6833	-0.154 ± 0.0043
x2 = 0.7476	-0.138 ± 0.00382
x2 = 0.8271	-0.109 ± 0.00335
x2 = 0.8826	-0.0805 ± 0.00263
x2 = 0.9349	-0.049 ± 0.00191
x2 = 0.9681	-0.0258 ± 0.00143

CC(=O)N(C)C [N,N-dimethylethanamide] + CCOC(C)=O
[2], 323.15 K, 1307 kPa
Details	excess molar enthalpy [kcal/mol]
x2 = 0.0476	0.00669 ± 0.0011
x2 = 0.0954	0.0126 ± 0.00124
x2 = 0.1435	0.0188 ± 0.00136
x2 = 0.1918	0.0239 ± 0.00143
x2 = 0.2404	0.0284 ± 0.00167
x2 = 0.2892	0.0327 ± 0.00167
x2 = 0.3383	0.0361 ± 0.00167
x2 = 0.3876	0.0392 ± 0.00191
x2 = 0.4372	0.0413 ± 0.00191
x2 = 0.487	0.043 ± 0.00191
x2 = 0.5371	0.044 ± 0.00191
x2 = 0.5875	0.0437 ± 0.00191
x2 = 0.6381	0.043 ± 0.00191
x2 = 0.689	0.0409 ± 0.00191
x2 = 0.7401	0.0382 ± 0.00167
x2 = 0.7916	0.0344 ± 0.00167
x2 = 0.8433	0.0287 ± 0.00167
x2 = 0.8952	0.0212 ± 0.00141
x2 = 0.9475	0.0119 ± 0.00122

CC(=O)N(C)C [N,N-dimethylethanamide] + CO
[2], 413.15 K, 1824 kPa
Details	excess molar enthalpy [kcal/mol]
x2 = 0.1079	-0.0748 ± 0.00263
x2 = 0.2034	-0.13 ± 0.00382
x2 = 0.2885	-0.17 ± 0.00454
x2 = 0.3648	-0.196 ± 0.00502
x2 = 0.4337	-0.212 ± 0.0055
x2 = 0.4961	-0.22 ± 0.00574
x2 = 0.553	-0.221 ± 0.00574
x2 = 0.605	-0.217 ± 0.0055
x2 = 0.6527	-0.207 ± 0.00526
x2 = 0.6967	-0.197 ± 0.00502
x2 = 0.7374	-0.181 ± 0.00478
x2 = 0.7751	-0.163 ± 0.00454
x2 = 0.8101	-0.145 ± 0.00406
x2 = 0.8428	-0.125 ± 0.00359
x2 = 0.8733	-0.105 ± 0.00311
x2 = 0.9019	-0.0848 ± 0.00287
x2 = 0.9287	-0.0633 ± 0.00239
x2 = 0.9539	-0.0423 ± 0.00191
x2 = 0.9776	-0.0213 ± 0.00141
